Laboratory results: patent publication US20230158104A1, “COMPOUNDS FOR USE IN AUTOIMMUNE CONDITIONS” (priority 2020, published 2023)
“And” between values parts separate entries of the source, which are not always exact repeats. Equal values may be shown once. “Also recorded” adds a separate entry of the source. Read-outs that look alike come from different tables or passages of the source. Marks after values point to notes of the source that are not given here.

Assays:
[1] = Pharmacokinetics in patients; assay type: in vivo, Human
[2] = Pharmacokinetics, plasma and lung, mouse
NF-κB = NF-κB transactivation luciferase assay; assay type: cell-based, human; conditions: 100 nM plitidepsin, 6 hours, with poly I:C, LPS-B5 or Resiquimod; THP-1 NF-κB-Luc cells
Description: Luminescence was measured in a Perkin-Elmer EnVision reader.

[3] = Pharmacokinetics, plasma and lung, rat; conditions: rats, single intravenous dose 0.2 mg/kg
[4] = Stability of plitidepsin drug product and reconstituted solution; assay type: physicochemical
Description: Plitidepsin will be labelled with the study protocol code, the batch number, the content, the expiry date, the storage conditions, the name of the investigator and the sponsor. The study drug will be labelled in accordance with Annex 13 of the European Good Manufacturing Practices. Plitidepsin should be stored between 2° C. and 8° C. and the vials should be kept in the outer carton to protect them from light. The drug in these conditions is stable for 60 months.
After reconstitution of the 2 mg plitidepsin vial with 4 ml of the solution for reconstitution of macrogolglycerol ricinoleate/ethanol/water for injection, the reconstituted solution should be diluted and used immediately after preparation. If not used immediately, storage times and conditions until use are the responsibility of the user. […] If storage is required before administration, solutions should be stored refrigerated and protected from light and should be used within 24 hours after reconstitution.

[5] = system: cytokine secretion induced by Resiquimod in THP-1 cells; assay: Plitidepsin pre-treatment of THP-1 NFκB luc cells before Resiquimod stimulus; assay type: cell-based, human; conditions: 1, 10 or 50 nM added 8 hours before Resiquimod 2.5 or 5 μg/mL; measured at 24 hours
Description: At 0 time THP-1 cells were treated with 1 nM, 10 nM or 50 nM APL or DMSO (0.2%) followed by stimulus with Resiquimod at 2.5 or 5 μg/mL at 8 hours. At 24 hours cytokines or cell viability was measured.
In a further in vitro experiment, the effect of plitidepsin (APL) pre-treatment on THP-1 cells was studied. Using a THP-1 NFκB luc line, 1, 10 or 50 nM of APL or DMSO (0.2%) was added 8 hours before stimulus with Resiquimod (RQ) at 2.5 or 5 μg/mL. RQ is a TLR7/8 agonist and mimics ssRNA. At 24 hours the level of cytokines or cell viability was measured.

alveolar macrophages = conditions: mice, plitidepsin 1 mg/kg i.v. with LPS 20 μg/kg i.p., three hours
COVID-19 = assay type: in vivo, human
Description: All patients received the following prophylactic medications 20-30 minutes before the infusion of plitidepsin: • Diphenhydramine hydrochloride 25 mg iv or equivalent. • Ranitidine 50 mg iv or equivalent. • Dexamethasone 6.6 mg intravenous. • Ondansetron 8 mg i.v. in slow infusion of 15 minutes or equivalent.
Patients included in the study will receive treatment for 3 days.

[6] = Pharmacokinetics, plasma and lung, hamster; conditions: hamsters, single intravenous dose 0.2 mg/kg
THP-1 cells = assay: MTT cell proliferation assay (cytotoxicity control); assay type: cell-based, human; conditions: activators combined with 100 nM plitidepsin, 6 hours
[7] = system: TLR-trigged cytokine secretion in THP-1 cells; assay: ELISA assays for secreted cytokines, TLR ligands combined with plitidepsin; conditions: 100 nM plitidepsin with TLR ligands, 6 hours, THP-1, ELISA
Description: To investigate whether plitidepsin inhibits the TLR-trigged cytokine secretion, we treated THP-1 cells with 100 ng/mL TNFα (an activator of NF-κB), 500 μg/mL poly I:C (TLR3 ligand), 10 μg/mL LPS-B5 (TLR4 ligand) or 10 μg/mL Resiquimod (TLR-7/8 ligand). The compounds were used either alone (grey bars) or combined with 100 nM of plitidepsin (red bars) for 6 hours. We compared the variations in cytokine secretion in the cell culture supernatants between the different treatments by ELISA assays.
THP1-NFκB-LUC cell cultures were treated as described above, and the culture medium was sampled at 6 hours post-treatment to assay for secreted cytokines by ELISA. Media samples were stored at 4-C. IL-8, IL-1β, IL-6 and TNFα protein secretion into culture medium was quantitated using highly specific and sensitive ELISA kits. Human IL-lb, human IL-6, human IL-8 and human TNF OptEIA™ ELISA kits were obtained from BD Biosciences and performed as described by the manufacturer. The data presented are the average of three independent experiments performed in triplicate.

[8] = system: LPS-trigged cytokine secretion in alveolar macrophages; assay: Ex vivo LPS-B5-triggered cytokine secretion in bronchoalveolar lavage cells of treated mice; conditions: mice 1 mg/kg i.v.
Description: To that end mice were injected i.v. with plitidepsin (1 mg/kg) or vehicle and 12 hours after administration bronchoalveolar lavage fluid (BAL) was collected. Cells were plated and treated ex-vivo or not with 15 μg/mL of LPS-B5 for 3 or 6 hours and secreted cytokines were measured.
Mice were randomized into groups of five animals to receive the treatments. Mice were injected intra venous (i.v.) with plitidepsin (1 mg/kg) and 12 hours after administration were euthanized. Control group received plitidepsin vehicle diluted with saline (Cremophor/Ethanol/Water). Bronchoalveolar lavage fluid (BAL) of each group was collected and centrifugated to obtain bronchoalveolar lavage cells. Cells underwent red blood cell lysis (Roche) and were plated and treated ex-vivo or not with 15 μg/mL of LPS-B5 for 3 or 6 hours. Secreted cytokines were measured using highly specific and sensitive ELISA kits. Mouse IL-6, mouse IL-10 and mouse TNF DuoSet ELISA kits were obtained from R&D Systems and performed as described by the manufacturer.

[9] = system: resiquimod (RQ)-trigged cytokine secretion in BALF; assay: Resiquimod intranasal inflammation model, TNFα in BALF; conditions: mice 1 mg/kg i.v. 1 hour before Resiquimod 50 μg/mouse intranasal; 1 or 3 hours after RQ
Description: We further checked whether plitidepsin inhibits resiquimod (RQ)-trigged cytokine secretion in BALF. Mice were injected i.v. with plitidepsin (1 mg/kg) or vehicle 1 hour before a 50 μg/mouse intranasal inoculation with resiquimod. At 1 or 3 hours after intranasal administration of RQ bronchoalveolar lavage fluid (BALF) was collected. Cells were plated and secreted cytokines were measured.
In another inflammation model, mice were randomized into groups of two animals to receive the treatments. Mice were challenged with plitidepsin (1 mg/kg) intra venous (i.v.) followed by Resiquimod (50 μg/mouse, intranasal) 1 hour latter. The control group received plitidepsin vehicle (Cremophor/Ethanol/Water) diluted with saline. One and 3 hours later, animals were euthanized, bronchoalveolar lavage collected (a total of 1.2 ml, PBS) and then, TNFα quantified by ELISA kits.

[10] = Human (M/F), 0.135 mg/kg (Recommended Dose 5 mg/m2, 3-h intravenous infusion)
[11] = Human, 0.02 mg/kg (1.5 mg/patient), following 3 daily doses, estimated from population PK model
[12] = Mouse (F) C57BL6/J, 1.0 mg/kg single intravenous bolus, plasma
[13] = individual patients, PLD 2.0 mg×3
[14] = BAL cells 12 hours after, ex vivo 15 μg/mL LPS-B5 for 3 or 6 hours, listed as plitidepsin, 1 mg/kg

Q: With “(−)-(3S,6R,7S,10R,11S,15S,17S,20S,25aS)-11-hydroxy-3-(4-methoxybenzyl)-2,6,17-trimethyl-15-(1-methylethyl)-7-[[(2R)-4-methyl-2-[methyl[[(2S)-1-(2-oxopropanoyl)pyrrolidin-2-yl]carbonyl]amino]pentanoyl]amino]-10-[(1S)-1-methylpropyl]-20-(2-methylpropyl)tetradecahydro-15H-pyrrolo[2,1-f]-[1,15,4,7,10,20]dioxatetrazacyclotricosine-1,4,8,13,16,18,21(17H)-heptone [PLD]” as the substance, how does the “AUC0-∞” value [1, 10] read?
A: Its value is 256.0 ng·h/mL.

Q: And the Cl [1, 10]?
A: Its Cl is 12 to 15 mL/min/kg.

Q: And the Cmax [1, 10]?
A: Its Cmax is 29.1 ng/mL.

Q: And the Vdss [1, 10]?
A: The Vdss was 29-33 L7 kg.

Q: And the t1/2 [1, 10]?
A: Its t1/2 is 20 to 80 h.

Q: And the “AUC0-∞” value [1, 11]?
A: The value was 174.0^d ng · h/mL.

Q: And the Cmax [1, 11]?
A: The Cmax was 8.5^d ng/mL.

Q: What about the “AUC0-∞” value [2, 12] of the same substance?
A: Its value is 225.3 ng·h/mL.

Q: What about the Cl [2, 12] of the same substance?
A: The Cl was 73.3 mL/min/kg.

Q: And the Cmax [2, 12]?
A: Its Cmax is 50.7 ng/mL.

Q: And the Vdss [2, 12]?
A: The Vdss was 101.8 L7 kg.

Q: And the t1/2 [2, 12]?
A: Its t1/2 is 18.2 h.

Q: And the “Maximum Tolerated Dose” value ([2]; Mouse (F) C57BL6/J, single intravenous bolus)?
A: The value was 1.0^a mg/kg.

Q: What about the “lung-to-plasma ratio (lungAUC0-∞/plasmaAUC0-∞)” value (“lung-to-plasma ratio” below) ([2]; mice, single intravenous dose 1.0 mg/kg) of the same substance?
A: Its value is 133.

Q: What about the “production of luciferase (NF-κB transactivation)” value (NF-κB) of the same substance?
A: The value was “clearly inhibited”.

Q: What about the “lung-to-plasma ratio” value [3] of the same substance?
A: The value was 460.

Q: What about the “physical, chemical and microbiological stability of reconstituted concentrated solution” value ([4]; original vial under indoor light at room temperature) of the same substance?
A: Its value is 6 hours.

Q: What about the “physical, chemical and microbiological stability of reconstituted concentrated solution” value ([4]; refrigerated conditions (5° C.±3° C.)) of the same substance?
A: The value was 24 hours.

Q: What about the “stability of the drug (2 mg vial, powder)” value ([4]; stored between 2° C. and 8° C., in outer carton protected from light) of the same substance?
A: Its value is 60 months.

Q: What about the “secretion of IL1β” value [5] of the same substance?
A: The value was “inhibited”.

Q: And the “secretion of IL6” value [5]?
A: Its value is “inhibited”.

Q: What about the “secretion of IL8” value [5] of the same substance?
A: The value was “inhibited”.

Q: And the “secretion of TNF-α” value [5]?
A: Its value is “inhibited”.

Q: And the “cytotoxic effects (CD45+ alive cells in bronchoalveolar lavage)” value (alveolar macrophages)?
A: The value was “without cytotoxic effects”.

Q: And the “percentage of macrophages present in bronchoalveolar lavage” value (alveolar macrophages)?
A: The value was “decrease”.

Q: And the tolerability (COVID-19; 45 patients, 1.5, 2.0 and 2.5 mg daily for 3 days, all 3 dose cohorts)?
A: Its tolerability is “well tolerated”.

Q: What about the “Hospital discharge by day” value (COVID-19; [13]) of the same substance?
A: Its value is ≤ 10 days and ≤ 8 days.

Q: And the “PCR COVID 19 test converted to negative by day” value (COVID-19; [13])?
A: The value was ≤ 15 day and ≤ 7 day and still positive at day 7.

Q: And the clinical outcome (COVID-19; [13])?
A: The clinical outcome was “major clinical improvement”.

Q: What about the “patients discharged by Day 15” value (COVID-19; mild disease, across dose cohorts (9/9)) of the same substance?
A: Its value is 100%.

Q: What about the “patients discharged by Day 15” value (COVID-19; moderate disease, across dose cohorts (23/28)) of the same substance?
A: Its value is 82%.

Q: What about the “Bilateral pneumonia resolved by day” value (COVID-19; patient 5, PLD 1.5 mg×3) of the same substance?
A: The value was at most 6 days.

Q: What about the C-reactive protein (COVID-19; patient 5, PLD 1.5 mg×3) of the same substance?
A: The C-reactive protein was “acute fall is seen by day 2”.

Q: What about the C-reactive protein (COVID-19; patients 7 and 9, PLD 2.0 mg×3) of the same substance?
A: The C-reactive protein was “acute fall is seen by day 3”.

Q: And the “patients discharged by Day 15” value (COVID-19; severe disease, across dose cohorts (4/7))?
A: Its value is 57%.

Q: What about the “lung-to-plasma ratio” value [6] of the same substance?
A: The value was 909.

Q: And the “Survival (MTT assay), cytotoxic effect” value (THP-1 cells)?
A: Its value is “No cytotoxic effect”.

Q: And the “production of IL-1” value [7]?
A: Its value is “clearly inhibited”.

Q: And the “production of IL-6” value [7]?
A: Its value is “clearly inhibited”.

Q: What about the “production of IL-8” value [7] of the same substance?
A: Its value is “clearly inhibited”.

Q: What about the “production of TNFα” value [7] of the same substance?
A: The value was “clearly inhibited”.

Q: And the “secretion of IL-10 induced by LPS-B5” value ([8]; BAL cells 12 hours after, ex vivo 15 μg/mL LPS-B5 for 3 or 6 hours)?
A: Its value is “significantly reduce”.

Q: What about the “secretion of IL-6 induced by LPS-B5” value [8, 14] of the same substance?
A: Its value is “clearly inhibited; also recorded: significantly reduce”.

Q: What about the “secretion of TNFα induced by LPS-B5” value [8, 14] of the same substance?
A: Its value is “clearly inhibited; also recorded: significantly reduce”.

Q: What about the “cell viability of CD45+ cells from bronco-alveolar lavages” value ([8]; LPS-B5 ex vivo) of the same substance?
A: Its value is “unrelated to cell viability”.

Q: What about the “production of TNFα in BALF” value [9] of the same substance?
A: Its value is “prevented the increased production”.
